Laboratory results reported in patent publication US8592405B2, “Synergistic antimicrobial composition” (Dow Global Technologies LLC, priority 2009, dated 2013).
Several values for one entry are separate records, joined by “and”; a condition that tells them apart may be missing. Equal values may be shown once.

Key:
Type in all cases: cell-based
[1] = test system: Stachybotris chartarum (Sc); assay: Fungal efficacy testing, modified ASTM 5590 (12-well, dry paint film); details: three weeks
Method: (§1) Samples of white acrylic latex paint free of biocides were prepared in 50 ml aliquots. Each biocide was post added to give the necessary active ingredient concentration in the paint. The total biocides concentrations tested were 750, 1500, 2500 and 5000 ppm. After biocides addition, each sample was hand mixed for a minimum of 30 sec, followed by a 3 min run on the paint shaker (RED DEVIL). Each of the paint samples as well as a control sample (containing no biocide) were used to prepare films on black plastic-vinyl chloride/acetate copolymer panels (LENETA, Mahwah, N.J.) using a 3 mil bird bar applicator. The panels were thoroughly dried for 5 days avoiding direct exposure to sunlight. Square discs (15 mm^2) were cut out from each panel and were used as the substrate for fungal and algal efficacy tests. This sample size allowed for an agar border when the sample disc was placed into the well of the test plate.
(§2) The appropriate media (BOLD'S 3N for Chlorophytes, BG-11 for Cyanobacteria, and PDA for fungi) were used to support microbial growth. The test plates were maintained at room temp (25° C.-26° C.), in a cycled light-dark environment, for 3 weeks for algae. Plates for fungal challenge tests were maintained at 30C for three weeks. At the end of incubation period the samples were scored for percent area covered by visible microbial growth.
(§3) ASTM 5590 is a standard accelerated test method for determining resistance of various coatings (including paints) to fungal defacement. To accommodate for high-throughput screening, this method was scaled down from petri plates to 12-well plates. To set up the test, an agar plug was placed at the bottom of each well of the sterile 12-well plate. A single coupon was placed with a pair of sterile forceps at the center of the agar plug (on top) with the painted surface facing upwards. Each well was inoculated with 150 μl of organism (1×10^6 cfu/ml) making sure that the whole surface (paint film as well as the agar surrounding it) was evenly covered. The plates were incubated at 30° C. in presence of moisture, for a period of three weeks. The total percent area covered was evaluated and recorded at the end of each week after the 2nd week and recorded in increments of 5%.
(§4) The SI is calculated based on F. C. Kull et.

[2] = test system: Cladosporium herbarum (Ch); assay: as above; details: at the Total conc, three weeks
Method: as §1, §2, §3, §4

Trichoderma viride (Tv) = assay: as above; details: three weeks
Method: as §1, §2, §3, §4

[3] = test system: Penicillium funiculosum (Pf); assay: as above; details: at the Total conc, three weeks
Method: as §1, §2, §3, §4

[4] = test system: Aureobasidium pullulans (Ap); assay: as above; details: at the Total conc, three weeks
Method: as §1, §2, §3, §4

[5] = test system: Alternaria alternata (Aa); assay: as above; details: at the Total conc, three weeks
Method: as §1, §2, §3, §4

Nostoc commune (Nc) = assay: Algal efficacy testing, modified ASTM 5589 (12-well, dry paint film); details: three weeks
Method: as §1, §2
(§5) ASTM 5589 is a standard accelerated test method for determining resistance of various coatings (including paints) to algal defacement. To accommodate for high-throughput screening, this method was scaled down from petri plates to 12-well plates. A single coupon was placed with a pair of sterile forceps at the center of the agar plug (on top) with the painted surface facing upwards. Each well was inoculated with 150 μl of organism (1×10^8 cfu/ml) making sure that the whole surface (paint film as well as the agar surrounding it) was evenly covered. The plates were incubated at room temp (25° C.-26° C.) with cyclic exposure to light (OTT-Lite model #OTL4012P, 40 Watt, 26 KLumen) and dark phases, for a period of three weeks. The total area covered was evaluated at the end of each week according to percent area covered in 5% increments. While rating the plates, notations were made for zones of inhibition.
as §4

Gleocapsa sp. (Gs) = assay: as above; details: at the Total conc, three weeks
Method: as §1, §2, §5, §4

[6] = test system: Trentepohlia aurea + Trentepohlia odorata (Ta + To); assay: as above; details: three weeks
Method: as §1, §2, §5, §4

Oscillatoria sp. (Os) = assay: as above; details: at the Total conc, three weeks
Method: as §1, §2, §5, §4

[7] = test system: Chlorella sp. + Chlorella kessleri (Cs + Ck); assay: as above; details: at the Total conc, three weeks
Method: as §1, §2, §5, §4

[8] = test system: Calothrix parientina (Cp); assay: as above; details: three weeks
Method: as §1, §2, §5, §4

Aspergillus niger (An) = assay: Fungal efficacy testing, modified ASTM 5590 (12-well, dry paint film); details: three weeks
Method: as §1, §2
as §3, with “5%. […]” for “5%.”

[9] = test system: Aa + Ap (Alternaria alternata + Aureobasidium pullulans); assay: Fungal efficacy testing, modified ASTM 5590 (6-well, mixed inoculum, Example 4); details: four weeks; for Total conc, ppm: Aa + Ap mixed inoculum, NE = no end point at the concentration tested; for % inhibition: Aa + Ap, at the Total conc
Method: [The source words this procedure for another target and reports this target under the same test.] as §4
(§6) A single or blend of biocides was post added into white acrylic latex paint free of biocides to give a maximum total active ingredient/s concentration tested. This paint was then diluted with a biocide free acrylic latex paint at concentrations range of 75 to 12.5% w/w to give desired concentrations for the testing. Depending on the type of biocide blends tested, the total biocides concentrations varies from 200 to 5000 ppm. After biocides addition or dilution each sample was hand mixed for at least a minute until uniformity is achieved. Each of the paint samples as well as a control sample (containing no biocide) were used to prepare films on black plastic-vinyl chloride/acetate copolymer panels (LENETA, Mahwah, N.J.) using a 3 mil bird bar applicator. The panels were thoroughly dried for at least 2 days avoiding direct exposure to sunlight. Square discs (0.5 inch^2, 13 mm^2) were cut out from each panel and were used as the substrate for fungal and algal efficacy tests. This sample size allowed for an agar border when the sample disc was placed into the well of the test plate. Each sample was tested in duplicate
as §2, with “for four” for “for 3”, “at 30 C” for “at 30C”, “for four” for “for three”, “of the” for “of”
as §3, with “6-well” for “12-well”, “upwards. Fungal inoculums were prepared by mixing equal concentrations (1×10^6 cfu/ml) and equal volumes (depending on number of samples to be tested) of like growing organisms. Cladosporium herbarum was mixed with Aureobasidium pullulans. Aspergillus niger was mixed with Penicillium funiculosum. Alternaria alternata was mixed with Trichoderma viride.” for “upwards.”, “400” for “150”, “organism mixture” for “organism”, “four” for “three”

[10] = test system: An + Pf (Aspergillus niger + Penicillium funiculosum); assay: as above; details: four weeks; for Total conc, ppm: An + Pf mixed inoculum, NE = no end point at the concentration tested; for % inhibition: An + Pf, at the Total conc
Method: as §4, §6
as §2, with “for four” for “for 3”, “at 30 C” for “at 30C”, “for four” for “for three”, “of the” for “of”
as §3, with “6-well” for “12-well”, “upwards. Fungal inoculums were prepared by mixing equal concentrations (1×10^6 cfu/ml) and equal volumes (depending on number of samples to be tested) of like growing organisms. Cladosporium herbarum was mixed with Aureobasidium pullulans. Aspergillus niger was mixed with Penicillium funiculosum. Alternaria alternata was mixed with Trichoderma viride.” for “upwards.”, “400” for “150”, “organism mixture” for “organism”, “four” for “three”

[11] = test system: Ch + Tv (Cladosporium herbarum + Trichoderma viride); assay: as above; details: four weeks; for Total conc, ppm: Ch + Tv mixed inoculum, NE = no end point at the concentration tested; for % inhibition: Ch + Tv, at the Total conc
Method: [The source words this procedure for another target and reports this target under the same test.] as §4, §6
as §2, with “for four” for “for 3”, “at 30 C” for “at 30C”, “for four” for “for three”, “of the” for “of”
as §3, with “6-well” for “12-well”, “upwards. Fungal inoculums were prepared by mixing equal concentrations (1×10^6 cfu/ml) and equal volumes (depending on number of samples to be tested) of like growing organisms. Cladosporium herbarum was mixed with Aureobasidium pullulans. Aspergillus niger was mixed with Penicillium funiculosum. Alternaria alternata was mixed with Trichoderma viride.” for “upwards.”, “400” for “150”, “organism mixture” for “organism”, “four” for “three”

[12] = test system: Cs + Ck + Nc (Chlorella sp., Chlorella kessleri, Nostoc commune); assay: Algal efficacy testing, modified ASTM 5589 (6-well, mixed inoculum, Example 4); details: four weeks; for Total conc, ppm: Cs + Ck + Nc mixed inoculum, NE = no end point at the concentration tested; for % inhibition: Cs + Ck + Nc, at the Total conc
Method: as §6
as §2, with “for four” for “for 3”, “at 30 C” for “at 30C”, “for four” for “for three”, “of the” for “of”
as §5, with “6-well” for “12-well”, “upwards. Algal inoculums were prepared by mixing equal concentrations (1×10^6 cfu/ml) and equal volumes (depending on number of samples to be inoculated) of like growing organisms. In this study, Gloeocapsa sp. and Oscillatoria sp. were a mix of cyanobacteria grown on BG-11 media. Chlorella sp., Chlorella kessleri, and Nostoc commune are unicellular chlorphytes that were mixed and grown on Bold media. Trentepohlia aurea, Trentepohlia odorata, and Calotrix parientina are filamentous algae that were mixed and grown on Bold media.” for “upwards.”, “400” for “150”, “mixture (1×10^6” for “(1×10^8”, “four” for “three”

[13] = test system: Gs + Os (Gloeocapsa sp. + Oscillatoria sp.); assay: as above; details: four weeks; for Total conc, ppm: Gs + Os mixed inoculum, NE = no end point at the concentration tested; for % inhibition: Gs + Os, at the Total conc
Method: as §6
as §2, with “for four” for “for 3”, “at 30 C” for “at 30C”, “for four” for “for three”, “of the” for “of”
as §5, with “6-well” for “12-well”, “upwards. Algal inoculums were prepared by mixing equal concentrations (1×10^6 cfu/ml) and equal volumes (depending on number of samples to be inoculated) of like growing organisms. In this study, Gloeocapsa sp. and Oscillatoria sp. were a mix of cyanobacteria grown on BG-11 media. Chlorella sp., Chlorella kessleri, and Nostoc commune are unicellular chlorphytes that were mixed and grown on Bold media. Trentepohlia aurea, Trentepohlia odorata, and Calotrix parientina are filamentous algae that were mixed and grown on Bold media.” for “upwards.”, “400” for “150”, “mixture (1×10^6” for “(1×10^8”, “four” for “three”

[14] = test system: Cp + To + Ta (Calotrix parientina, Trentepohlia odorata, Trentepohlia aurea); assay: as above; details: four weeks; for Total conc, ppm: Cp + To + Ta mixed inoculum, NE = no end point at the concentration tested; for % inhibition: Cp + To + Ta, at the Total conc
Method: as §6
as §2, with “for four” for “for 3”, “at 30 C” for “at 30C”, “for four” for “for three”, “of the” for “of”
as §5, with “6-well” for “12-well”, “upwards. Algal inoculums were prepared by mixing equal concentrations (1×10^6 cfu/ml) and equal volumes (depending on number of samples to be inoculated) of like growing organisms. In this study, Gloeocapsa sp. and Oscillatoria sp. were a mix of cyanobacteria grown on BG-11 media. Chlorella sp., Chlorella kessleri, and Nostoc commune are unicellular chlorphytes that were mixed and grown on Bold media. Trentepohlia aurea, Trentepohlia odorata, and Calotrix parientina are filamentous algae that were mixed and grown on Bold media.” for “upwards.”, “400” for “150”, “mixture (1×10^6” for “(1×10^8”, “four” for “three”

[15] = total biocide in paint taken as minimum inhibitory concentration, 30 C
[16] = total biocide in paint taken as minimum inhibitory concentration

## CCCCNC(=O)OCC#CI [IPBC, 3-iodo-2-propynyl-butylcarbamate]
[1]; at the Total conc
  % inhibition: 82.5%
[1]; [15]
  Total conc, ppm: 2500 ppm
[2]
  % inhibition: 75% and 80%
Trichoderma viride (Tv); at the Total conc
  % inhibition: 90% and 72.5% and 62.5%
Trichoderma viride (Tv); [15]
  Total conc, ppm: 750 ppm and 1500 ppm
[3]
  % inhibition: 97.5% and 60% and 70%
[4]
  % inhibition: 97.5% and 60% and 87.5%
[5]
  % inhibition: 97.5% and 50% and 100%
Nostoc commune (Nc); at the Total conc
  % inhibition: 87.5% and 90% and 80%
Nostoc commune (Nc); [16]
  Total conc, ppm: 1500 ppm and 2500 ppm
Gleocapsa sp. (Gs)
  % inhibition: 95% and 50% and 80%
[6]; at the Total conc
  % inhibition: 85% and 82.5% and 72.5%
[6]; [16]
  Total conc, ppm: 2500 ppm and 1500 ppm
Oscillatoria sp. (Os)
  % inhibition: 70% and 62.5% and 77.5%
[7]
  % inhibition: 97.5% and 90% and 70%
[8]; at the Total conc
  % inhibition: 97.5% and 90% and 80%
[8]; [16]
  Total conc, ppm: 2500 ppm and 5000 ppm
Aspergillus niger (An); at the Total conc
  % inhibition: 87.5% and 80% and 75%
Aspergillus niger (An); [15]
  Total conc, ppm: 2500 ppm and 1500 ppm

## CCCCCCCCn1sccc1=O [OIT, 2-n-octyl-4-isothiazolin-3-one]
[9]
  Total conc, ppm: 1350 ppm
  % inhibition: 100%
[10]
  Total conc, ppm: 450 ppm
  % inhibition: 100%
[11]
  Total conc, ppm: 450 ppm
  % inhibition: 50%
[12]
  Total conc, ppm: 1350 ppm
  % inhibition: 100%
[13]
  Total conc, ppm: 1350 ppm
  % inhibition: 100%
[14]
  Total conc, ppm: 1350 ppm
  % inhibition: 95%

## c1ccc2[nH]c(-c3cscn3)nc2c1 [TBZ, thiabendazole]
[9]
  Total conc, ppm: 3750 ppm
  % inhibition: 80%
[10]
  Total conc, ppm: 625 ppm
  % inhibition: 100%
[11]
  Total conc, ppm: 2500 ppm
  % inhibition: 50%
[12]
  Total conc, ppm: 1250 ppm
  % inhibition: 100%
[13]
  Total conc, ppm: 1875 ppm
  % inhibition: 100%
[14]
  Total conc, ppm: 1875 ppm
  % inhibition: 95%

## zinc pyrithione [ZPT]
[9]
  Total conc, ppm: 2500 ppm
  % inhibition: 100%
[10]
  Total conc, ppm: 1250 ppm
  % inhibition: 100%
[12]
  Total conc, ppm: 1250 ppm
  % inhibition: 100%
[13]
  Total conc, ppm: 625 ppm
  % inhibition: 100%
[14]
  Total conc, ppm: 625 ppm
  % inhibition: 100%
